From patent US4314999A, “N-Acyl derivatives of glucosamine having antitumor chemotherapeutic acitivity” (Proter S.p.A., priority 1980, dated 1982)

Tested on: Leukemia L 1210
Test: Survival (MST, ILS, T/C%) of mice inoculated i.p. with Leukemia L 1210, compound given orally
Format: in vivo
Parameters: Increase in Life Span (ILS): unit not given here
Details: for Survivors: of 10 mice
Experimental: The chemotherapeutic activity of the compound ethyl-D-glucosamyl-L-aspartoyl(β-ethoxy)-D-glucosamyl)m-di(2-chloroethylamino)-L-phenylalanyl-p-fluoro-L-phenylalanine was evaluated by conducting trials on mice injected with cells of Leukemia 1210 according to the procedure established in Cancer Chemotherapy Reports 1972, Vol. 3, No. 2: Protocols for Screening Chemical Agents and Natural Products Against Animal Tumors and other Biological Systems (Third Edition, National Cancer Institute, Bethesda, Maryland. The experimental model employed for the evaluation is:
Determination of the MST (Mean Survival Time) of BDGI mice inoculated intraperitoneally with 10^5 cells of lymphoid Leukenia L 1210 deriving from regular implants in DBA2 mice. The MST was determined both on the controls and on the animals treated, and thereafter an evaluation was made of the ILS (Increased Life Span) according to Cancer Chemotherapy Reports 1972, Vol. 3, No. 2 (Protocols for Screening Chemical Agents and Natural Products Against Animal Tumors and other Biological Systems--Third Edition, National Cancer Institute, Bethesda, Maryland). In this case, the compounds were tested only after oral administration starting from the 3rd day after implant of the tumor and continuing on the 17th, 25th and 35th day. On the 52nd day, any surviving animals were sacrificed and the experiment discontinued and evaluated.
The formula for the calculation of mean survival time is: [formula] wherein Day A=Day on which deaths are no longer considered due to drug toxicity - For Leukemia L 1210 day A=day 6
Day B=This day cannot be considered here because all control animals died within the 11th day and survivors were not observed.
S=The total of survivors from 6th day onwards
S(A-1)=Number of survivors at the end of day 5 (A-1)=S5
The ILS and the ratio T/C% are calcuated as follows: […]

[1] = Table, oral 25, 15, 10, 5 mg/Kg on days 3, 17, 25, 35, L 1210 mice

## Ethyl-D-glucosamyl-L-aspartoyl(β-ethoxy)-D-glucosamyl-m-di-(2-chloroethyl)amino-L-phenylalanyl-p-fluoro-phenylalanine
[1]
  I.L.S.: 186.4
  M.S.T.: 32.7
  T/C %: 311.4%
Day 3 from inoculum, oral 25 mg/Kg given this day
  Survivors: 10
Day 4 from inoculum
  Survivors: 10
Day 5 from inoculum
  Survivors: 10
Day 6 from inoculum
  Survivors: 10
Day 7 from inoculum
  Survivors: 10
Day 8 from inoculum
  Survivors: 10
Day 9 from inoculum
  Survivors: 10
Day 10 from inoculum
  Survivors: 10
Day 11 from inoculum
  Survivors: 10
Day 12 from inoculum
  Survivors: 10
Day 13 from inoculum
  Survivors: 10
Day 14 from inoculum
  Survivors: 10
Day 15 from inoculum
  Survivors: 10
Day 16 from inoculum
  Survivors: 10
Day 17 from inoculum, oral 15 mg/Kg given this day
  Survivors: 10
Day 18 from inoculum
  Survivors: 10
Day 19 from inoculum
  Survivors: 8
Day 20 from inoculum
  Survivors: 8
Day 21 from inoculum
  Survivors: 6
Day 22 from inoculum
  Survivors: 6
Day 23 from inoculum
  Survivors: 6
Day 24 from inoculum
  Survivors: 6
Day 25 from inoculum, oral 10 mg/Kg given this day
  Survivors: 6
Day 26 from inoculum
  Survivors: 6
Day 27 from inoculum
  Survivors: 6
Day 28 from inoculum
  Survivors: 6
Day 29 from inoculum
  Survivors: 6
Day 30 from inoculum
  Survivors: 5
Day 31 from inoculum
  Survivors: 5
Day 32 from inoculum
  Survivors: 5
Day 33 from inoculum
  Survivors: 5
Day 34 from inoculum
  Survivors: 4
Day 35 from inoculum, oral 5 mg/Kg given this day
  Survivors: 4
Day 36 from inoculum
  Survivors: 4
Day 37 from inoculum
  Survivors: 4
Day 38 from inoculum
  Survivors: 4
Day 39 from inoculum
  Survivors: 4
Day 40 from inoculum
  Survivors: 3
Day 41 from inoculum
  Survivors: 3
Day 42 from inoculum
  Survivors: 2
Day 43 from inoculum
  Survivors: 2
Day 44 from inoculum
  Survivors: 2
Day 45 from inoculum
  Survivors: 2
Day 46 from inoculum
  Survivors: 2
Day 47 from inoculum
  Survivors: 2
Day 48 from inoculum
  Survivors: 2
Day 49 from inoculum
  Survivors: 1
Day 50 from inoculum
  Survivors: 1
Day 51 from inoculum
  Survivors: 1
Day 52 from inoculum
  Survivors: 0
Ten mice, 10^5 L 1210 cells i.p., oral 25, 15, 10, 5 mg/kg on days 3, 17, 25, 35
  Mean Survival Time (MST): 32.7 days
Ten mice, 10^5 L 1210 cells i.p., oral 25, 15, 10, 5 mg/kg on days 3, 17, 25, 35, calculated as 311.4-125
  Increase in Life Span (ILS): 186.4
Ten mice, 10^5 L 1210 cells i.p., oral 25, 15, 10, 5 mg/kg on days 3, 17, 25, 35, control MST 10.5
  T/C% (MST of the treated group divided by the MST of the control group): 311.4%
